Experimental data as given in ChEMBL document CHEMBL1201862, “PubChem BioAssay data set” (2004).
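Protocol summary: plate cells (96-well), add compound at 5 concentrations, incubate 48 h, interpolate endpoints linearly. Here, GI50 denotes the concentration required for 50% inhibition of growth.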 The source made the active and inactive calls. Rule as the data show it: active = GI50 up to about 1.1 µM and inactive = higher.

What was measured:
Experiment in all cases: NCI anticancer screen, dose series, 48 h
SK-OV-3 = test system: SK-OV-3
RPMI-8226 = test system: RPMI-8226
A498 = test system: A498
SK-MEL-28 = test system: SK-MEL-28
SW-620 = test system: SW-620
HCT-15 = test system: HCT-15
HT-29 = test system: HT-29
MDA-MB-231 = test system: MDA-MB-231
786-0 = test system: 786-0
MCF7 = test system: MCF7
HL-60 = test system: HL-60
SK-MEL-2 = test system: SK-MEL-2
EKVX = test system: EKVX
OVCAR-4 = test system: OVCAR-4
UACC-62 = test system: UACC-62
HCT-116 = test system: HCT-116
T47D = test system: T47D
HOP-62 = test system: HOP-62
K562 = test system: K562

| SMILES | GI50 (SK-OV-3) | GI50 (RPMI-8226) | GI50 (A498) | GI50 (SK-MEL-28) | GI50 (SW-620) | GI50 (HCT-15) [µM] | GI50 (HT-29) | GI50 (MDA-MB-231) | GI50 (786-0) | GI50 (MCF7) | GI50 (HL-60) | GI50 (SK-MEL-2) | GI50 (EKVX) | GI50 (OVCAR-4) | GI50 (UACC-62) | GI50 (HCT-116) | GI50 (T47D) | GI50 (HOP-62) | GI50 (K562) |
| --- | --- | --- | --- | --- | --- | --- | --- | --- | --- | --- | --- | --- | --- | --- | --- | --- | --- | --- | --- |
| Cc1ccc(S(=O)(=O)N2C[C@@H]3CC[C@]4(CO[Si](C)(C)C(C)(C)C)N[C@@H](c5ccccc5)[C@H]2[C@H]34)cc1 | 68.1 µM (inactive) | 7.87 µM (inactive) | 48.8 µM (inactive) | > 100 µM (inactive) | 47.3 µM (inactive) | 24.7 | 13.2 µM (inactive) | 28.1 µM (inactive) | 27.8 µM (inactive) | 28.6 µM (inactive) | 12.7 µM (inactive) | 48.2 µM (inactive) | 34.2 µM (inactive) | 26.5 µM (inactive) | 56.4 µM (inactive) | 12 µM (inactive) | 8.18 µM (inactive) | 44.2 µM (inactive) | 9.02 µM (inactive) |
| CO/N=C1/C(n2[nH]c(=O)n(-c3ccccc3)c2=O)C2C=CC1n1c(=O)n(-c3ccccc3)c(=O)n12 (stereo unspecified) | > 100 µM (inactive) | > 100 µM (inactive) | > 100 µM (inactive) | > 100 µM (inactive) | > 100 µM (inactive) | > 100 | > 100 µM (inactive) | > 100 µM (inactive) | > 100 µM (inactive) | > 100 µM (inactive) | > 100 µM (inactive) | > 100 µM (inactive) | > 100 µM (inactive) | > 100 µM (inactive) | > 100 µM (inactive) | > 100 µM (inactive) | > 100 µM (inactive) | – | > 100 µM (inactive) |
| CC(CC(=O)CO[C@H]1[C@H](O)[C@@H](O)[C@@H](O)[C@@H]2NC(=O)c3c(cc4c(c3O)OCO4)[C@H]21)OC1OC(CO)C(O)C(O)C1O (stereo partly specified) | 0.469 µM (active) | 0.397 µM (active) | 1.09 µM (active) | 0.56 µM (active) | 0.374 µM (active) | 0.396 | 0.452 µM (active) | 0.355 µM (active) | 0.451 µM (active) | 0.283 µM (active) | 0.372 µM (active) | 0.242 µM (active) | 0.553 µM (active) | 0.277 µM (active) | 0.733 µM (active) | 0.275 µM (active) | 0.203 µM (active) | 0.366 µM (active) | 0.309 µM (active) |
| Cc1ccc(-n2c(O)c(C#N)c3[nH]nc(N)c3c2=O)cc1 | > 100 µM (inactive) | > 100 µM (inactive) | > 100 µM (inactive) | > 100 µM (inactive) | > 100 µM (inactive) | > 100 | > 100 µM (inactive) | > 100 µM (inactive) | > 100 µM (inactive) | > 100 µM (inactive) | > 100 µM (inactive) | > 100 µM (inactive) | > 100 µM (inactive) | > 100 µM (inactive) | > 100 µM (inactive) | > 100 µM (inactive) | > 100 µM (inactive) | – | > 100 µM (inactive) |
| CC1=NN(c2cccc(Cl)c2)C(=N/c2nc3ccccc3s2)/C1=C\c1cccs1 | 25.9 µM (inactive) | 13.4 µM (inactive) | 28.8 µM (inactive) | 36.2 µM (inactive) | 54.2 µM (inactive) | 32.8 | 23.4 µM (inactive) | 38.9 µM (inactive) | 87.3 µM (inactive) | 33.9 µM (inactive) | 14.3 µM (inactive) | 25.9 µM (inactive) | 24.1 µM (inactive) | 35.6 µM (inactive) | – | 44.8 µM (inactive) | 39.4 µM (inactive) | 19.5 µM (inactive) | 32.7 µM (inactive) |
| COC1=C(OC)C(=O)C(Cc2c(Cl)nc3sccn23)=C(C)C1=O | 10.1 µM (inactive) | 2.34 µM (inactive) | 12.8 µM (inactive) | 12 µM (inactive) | 13.7 µM (inactive) | 12.6 | 14.6 µM (inactive) | 2.38 µM (inactive) | 16.7 µM (inactive) | 10.2 µM (inactive) | 2.42 µM (inactive) | 14.1 µM (inactive) | 7.11 µM (inactive) | 2.96 µM (inactive) | 5.2 µM (inactive) | 13.6 µM (inactive) | 2.76 µM (inactive) | 16.1 µM (inactive) | 11 µM (inactive) |
